Laboratory results taken from patent publication US20240317777A1, “NOVEL MACROCYCLIC AMINOPYRAZOLE COMPOUNDS AS CDK2 INHIBITORS” (Accutar Biotechnology Inc., priority 2023, published 2024).
Read-outs that look alike come from different tables or passages of the source.

Legend:
CDK1-CYCLIN B = CDK1-CYCLIN B (Homo sapiens, UniProt P06493); test: CDK protein kinase inhibition by ADP-Glo assay, CDK1-CYCLIN B; assay type: biochemical; settings: for IC50: read-out: CDK1-CYCLINB, IC50; for CDK2 Fold selectivity, CDK1: CDK2 versus CDK1
Summary of the method: (§1)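 Kinase/cyclin + peptide substrate + cpd + ATP (1000 μM)/MgCl2 (5 mM), HEPES pH 7.5, 22° C; quench, ADP-Glo reagent 45 min RT, detection reagent 10 min, luminescence.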

CDK2-CYCLIN E1 = CDK2-CYCLIN E1 (Homo sapiens, UniProt P24941); test: CDK protein kinase inhibition by ADP-Glo assay, CDK2-CYCLIN E1; assay type: biochemical; settings: read-out: CDK2-CYCLINE, IC50
Summary of the method: as §1

CDK4-CYCLIN D1 = CDK4-CYCLIN D1 (Homo sapiens, UniProt P11802); test: CDK protein kinase inhibition by ADP-Glo assay, CDK4-CYCLIN D1; assay type: biochemical; settings: for IC50: read-out: CDK4-CYCLIND1, IC50; for CDK2 Fold selectivity, CDK4: CDK2 versus CDK4
Summary of the method: as §1

CDK6-CYCLIN D3 = CDK6-CYCLIN D3 (Homo sapiens, UniProt Q00534); test: CDK protein kinase inhibition by ADP-Glo assay, CDK6-CYCLIN D3; assay type: biochemical; settings: for IC50: read-out: CDK6-CYCLIND3, IC50; for CDK2 Fold selectivity, CDK6: CDK2 versus CDK6
Summary of the method: as §1

CDK9-CYCLIN T1 = CDK9-CYCLIN T1 (Homo sapiens, UniProt P50750); test: CDK protein kinase inhibition by ADP-Glo assay, CDK9-CYCLIN T1; assay type: biochemical; settings: for IC50: read-out: CDK9-CYCLINT1, IC50; for CDK2 Fold selectivity, CDK9: CDK2 versus CDK9
Summary of the method: as §1

[1] = tested on: Phospho-Rb (Ser807/811) in OVCAR3 cells; test: Phospho-Rb expression inhibition in OVCAR3 cells quantified by In Cell Western; assay type: cell-based; settings: Homo sapiens, OVCAR-3, 24 hours, read-out: OVCAR-3 pRb IC50
Summary of the method: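 In-cell western: after 24 h compound exposure at 37° C, fixed OVCAR3 cells co-stained for pRb Ser807/811 (800 nm channel) and total Rb (680 nm channel), imaged by LI-COR Odyssey.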

[2] = tested on: CCNE1-amplified OVCAR3 cells; test: Cell growth inhibition of CCNE1-amplified OVCAR3 cells (CellTiter-Glo); assay type: cell-based; settings: Homo sapiens, OVCAR-3, 144 h, 6 days
Summary of the method: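 Growth read-out was CellTiter-Glo luminescence, taken after 10 min at room temperature at the end of a 6-day compound exposure at 37 °C. Compounds were diluted from DMSO stocks across various concentrations.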

CCNE1-normal SKOV3 cells = test: Cell growth inhibition of CCNE1-normal SKOV3 cells (CellTiter-Glo); assay type: cell-based; settings: Homo sapiens, SK-OV-3, 144 h, 6 days
Summary of the method: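 Growth was measured by CellTiter-Glo luminescence after 6 days' compound exposure at 37 °C. Cells were plated one day before dosing at 1000 per well in medium with 10% FBS, and compounds were diluted from DMSO stocks.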

[3] = Table 35, recombinant CDK kinase

Chain of CDK6-CYCLIN D3 (Q00534 whole entry): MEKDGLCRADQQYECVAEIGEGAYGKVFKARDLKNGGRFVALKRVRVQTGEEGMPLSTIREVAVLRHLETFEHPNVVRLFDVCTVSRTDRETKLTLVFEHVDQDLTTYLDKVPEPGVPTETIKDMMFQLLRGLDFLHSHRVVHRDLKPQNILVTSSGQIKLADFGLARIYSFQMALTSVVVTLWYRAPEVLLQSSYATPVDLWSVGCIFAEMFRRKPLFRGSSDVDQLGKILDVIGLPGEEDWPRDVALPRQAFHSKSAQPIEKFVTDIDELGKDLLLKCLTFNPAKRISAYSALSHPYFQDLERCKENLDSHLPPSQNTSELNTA
Chain of CDK6-CYCLIN D3 (P30281 whole entry partner): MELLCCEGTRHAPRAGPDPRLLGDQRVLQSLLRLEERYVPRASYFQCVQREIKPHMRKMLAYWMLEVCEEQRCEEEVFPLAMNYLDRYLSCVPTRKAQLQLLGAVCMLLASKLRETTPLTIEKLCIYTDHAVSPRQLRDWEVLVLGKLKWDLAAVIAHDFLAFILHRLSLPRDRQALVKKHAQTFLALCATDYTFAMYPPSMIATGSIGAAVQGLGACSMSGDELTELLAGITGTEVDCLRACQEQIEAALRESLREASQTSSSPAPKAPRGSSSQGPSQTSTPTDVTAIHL
Chain of CDK9-CYCLIN T1 (P50750 whole entry): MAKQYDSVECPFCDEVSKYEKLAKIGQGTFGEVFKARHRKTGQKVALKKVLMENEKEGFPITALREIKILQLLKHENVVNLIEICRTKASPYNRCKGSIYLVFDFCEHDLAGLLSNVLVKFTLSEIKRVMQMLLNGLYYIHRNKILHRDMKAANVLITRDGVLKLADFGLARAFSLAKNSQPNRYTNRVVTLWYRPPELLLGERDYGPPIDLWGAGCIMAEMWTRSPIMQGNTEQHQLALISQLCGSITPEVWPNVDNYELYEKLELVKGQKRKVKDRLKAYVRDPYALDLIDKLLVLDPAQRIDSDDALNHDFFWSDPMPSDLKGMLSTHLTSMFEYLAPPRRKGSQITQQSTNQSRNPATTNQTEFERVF
Chain of CDK9-CYCLIN T1 (O60563 whole entry partner): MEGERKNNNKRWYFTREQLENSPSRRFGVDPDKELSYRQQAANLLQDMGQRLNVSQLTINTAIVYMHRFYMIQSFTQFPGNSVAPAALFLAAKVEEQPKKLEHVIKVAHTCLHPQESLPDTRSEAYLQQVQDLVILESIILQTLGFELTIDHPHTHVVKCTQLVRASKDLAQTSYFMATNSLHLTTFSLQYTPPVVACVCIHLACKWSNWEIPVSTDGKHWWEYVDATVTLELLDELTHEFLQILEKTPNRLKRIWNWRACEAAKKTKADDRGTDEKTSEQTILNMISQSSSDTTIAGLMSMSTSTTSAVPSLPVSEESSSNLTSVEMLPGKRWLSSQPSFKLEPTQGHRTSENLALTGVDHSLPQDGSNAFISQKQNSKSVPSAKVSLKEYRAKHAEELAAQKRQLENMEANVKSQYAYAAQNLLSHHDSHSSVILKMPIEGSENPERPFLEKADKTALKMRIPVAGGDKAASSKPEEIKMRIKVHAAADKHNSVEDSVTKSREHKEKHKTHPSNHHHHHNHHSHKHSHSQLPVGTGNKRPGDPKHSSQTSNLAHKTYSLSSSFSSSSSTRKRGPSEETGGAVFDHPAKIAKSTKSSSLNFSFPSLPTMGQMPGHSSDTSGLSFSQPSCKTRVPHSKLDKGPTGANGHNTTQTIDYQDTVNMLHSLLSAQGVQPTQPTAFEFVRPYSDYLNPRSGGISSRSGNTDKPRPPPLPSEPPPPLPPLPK
Chain of CDK1-CYCLIN B (P06493 whole entry): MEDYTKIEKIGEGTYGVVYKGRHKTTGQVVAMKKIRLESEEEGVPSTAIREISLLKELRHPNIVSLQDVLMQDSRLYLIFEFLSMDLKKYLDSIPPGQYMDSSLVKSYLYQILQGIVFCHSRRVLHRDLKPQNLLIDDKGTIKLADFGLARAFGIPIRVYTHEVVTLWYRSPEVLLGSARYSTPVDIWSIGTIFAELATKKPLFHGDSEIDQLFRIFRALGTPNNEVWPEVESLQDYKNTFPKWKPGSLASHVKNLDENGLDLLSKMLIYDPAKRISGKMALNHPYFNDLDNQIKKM
Chain of CDK1-CYCLIN B (P14635 whole entry partner): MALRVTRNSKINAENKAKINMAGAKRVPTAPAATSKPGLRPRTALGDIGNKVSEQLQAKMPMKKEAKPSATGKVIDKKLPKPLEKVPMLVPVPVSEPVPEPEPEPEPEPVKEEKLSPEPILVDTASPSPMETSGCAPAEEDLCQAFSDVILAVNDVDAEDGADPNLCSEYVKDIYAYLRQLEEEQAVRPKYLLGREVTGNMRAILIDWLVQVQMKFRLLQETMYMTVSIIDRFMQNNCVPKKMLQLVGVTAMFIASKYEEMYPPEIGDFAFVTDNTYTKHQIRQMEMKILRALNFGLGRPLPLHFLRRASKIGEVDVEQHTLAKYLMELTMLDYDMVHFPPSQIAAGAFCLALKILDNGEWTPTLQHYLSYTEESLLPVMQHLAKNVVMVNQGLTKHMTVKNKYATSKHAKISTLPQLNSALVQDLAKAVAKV
Chain of CDK4-CYCLIN D1 (P11802 whole entry): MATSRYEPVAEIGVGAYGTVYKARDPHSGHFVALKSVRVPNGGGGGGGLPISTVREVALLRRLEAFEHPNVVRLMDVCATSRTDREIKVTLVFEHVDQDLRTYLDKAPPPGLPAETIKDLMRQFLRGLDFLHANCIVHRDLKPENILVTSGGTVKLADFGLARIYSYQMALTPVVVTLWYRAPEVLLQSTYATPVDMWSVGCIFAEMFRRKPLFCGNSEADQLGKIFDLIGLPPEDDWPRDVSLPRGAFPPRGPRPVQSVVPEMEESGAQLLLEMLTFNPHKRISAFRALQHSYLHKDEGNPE
Chain of CDK4-CYCLIN D1 (P24385 whole entry partner): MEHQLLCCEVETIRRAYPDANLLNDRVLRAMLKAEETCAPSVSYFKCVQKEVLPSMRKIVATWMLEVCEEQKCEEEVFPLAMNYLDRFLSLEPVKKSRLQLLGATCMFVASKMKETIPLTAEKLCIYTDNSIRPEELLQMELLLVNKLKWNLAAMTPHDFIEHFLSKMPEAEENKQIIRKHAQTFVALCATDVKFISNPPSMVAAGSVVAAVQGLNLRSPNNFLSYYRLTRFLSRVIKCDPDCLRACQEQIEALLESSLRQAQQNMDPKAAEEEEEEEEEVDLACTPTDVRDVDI

SMILES	IC50 (CDK1-CYCLIN B; ADP-Glo, 1000 μM ATP, Table 11)	CDK2 Fold selectivity, CDK1 (CDK1-CYCLIN B; Table 12)	IC50 (CDK2-CYCLIN E1; ADP-Glo, 1000 μM ATP, Table 11)	IC50 (CDK4-CYCLIN D1; ADP-Glo, 1000 μM ATP, Table 11)	CDK2 Fold selectivity, CDK4 (CDK4-CYCLIN D1; Table 12)	IC50 (CDK6-CYCLIN D3; ADP-Glo, 1000 μM ATP, Table 11)	CDK2 Fold selectivity, CDK6 (CDK6-CYCLIN D3; Table 12)	IC50 (CDK9-CYCLIN T1; ADP-Glo, 1000 μM ATP, Table 11)	CDK2 Fold selectivity, CDK9 (CDK9-CYCLIN T1; Table 12)	IC50 [1]	IC50 [2]	IC50 (CCNE1-normal SKOV3 cells)	IC50 (CDK1-CYCLIN B; ADP-Glo, 1000 μM ATP, Table 19)	CDK2 Fold selectivity, CDK1 (CDK1-CYCLIN B; Table 20)	IC50 (CDK2-CYCLIN E1; ADP-Glo, 1000 μM ATP, Table 19)	IC50 (CDK4-CYCLIN D1; ADP-Glo, 1000 μM ATP, Table 19)	CDK2 Fold selectivity, CDK4 (CDK4-CYCLIN D1; Table 20)	IC50 (CDK6-CYCLIN D3; ADP-Glo, 1000 μM ATP, Table 19)	CDK2 Fold selectivity, CDK6 (CDK6-CYCLIN D3; Table 20)	IC50 (CDK9-CYCLIN T1; ADP-Glo, 1000 μM ATP, Table 19)	further results
O=C1N[C@H]2C[C@H](COc3cc(ccn3)Nc3cc(n[nH]3)[C@H]3CC[C@H](C3)O1)C2 [Compound 108, (1^1S,1^3R,7^1R,7^3S,Z)-2^1H-5,10-dioxa-3,8-diaza-4(4,2)-pyridina-2(3,5)-pyrazola-1(1,3)-cyclopentana-7(1,3)-cyclobutanacyclodecaphan-9-one]	10 to 50 nM	B (B, >100 and ≤500)	≤ 10 nM	100 to 500 nM	B (B, >100 and ≤500)	100 to 500 nM	A (A, ≥500)	100 to 500 nM	A (A, ≥500)	2 to 10 nM	2 to 10 nM	250 to 1250 nM	–	–	–	–	–	–	–	–	IC50 (CDK1-CYCLIN B; [3]): 10 to 50 nM; CDK2 Fold selectivity against CDK1 (CDK1-CYCLIN B; Table 36, fold selectivity for CDK2 over CDK1, recombinant CDK kinases): E (E, <20); IC50 (CDK2-CYCLIN E1; [3]): ≤ 10 nM; IC50 (CDK4-CYCLIN D1; [3]): 10 to 50 nM; CDK2 Fold selectivity against CDK4 (CDK4-CYCLIN D1; Table 36, fold selectivity for CDK2 over CDK4, recombinant CDK kinases): E (E, <20); IC50 (CDK6-CYCLIN D3; [3]): 50 to 100 nM; CDK2 Fold selectivity against CDK6 (CDK6-CYCLIN D3; Table 36, fold selectivity for CDK2 over CDK6, recombinant CDK kinases): D (D, >20 and ≤50); IC50 (CDK9-CYCLIN T1; [3]): 50 to 100 nM; CDK2 Fold selectivity against CDK9 (CDK9-CYCLIN T1; Table 36, fold selectivity for CDK2 over CDK9, recombinant CDK kinases): D (D, >20 and ≤50)
C[C@H]1CCCCc2cc(ccn2)Nc2cc(n[nH]2)[C@H]2CC[C@H](C2)OC(=O)N1 [Compound 114, (1^1S,1^3R,9S,Z)-9-methyl-2^1H-12-oxa-3,10-diaza-4(4,2)-pyridina-2(3,5)-pyrazola-1(1,3)-cyclopentanacyclododecaphan-11-one]	–	–	–	–	–	–	–	–	–	10 to 50 nM	10 to 50 nM	250 to 1250 nM	100 to 500 nM	E (E, <20)	≤ 10 nM	50 to 100 nM	E (E, <20)	100 to 500 nM	E (E, <20)	100 to 500 nM	CDK2 Fold selectivity, CDK9 (CDK9-CYCLIN T1; Table 20): D (D, >20 and ≤50)
C[C@@H]1CCCCc2cc(ccn2)Nc2cc(n[nH]2)[C@H]2CC[C@H](C2)OC(=O)N1 [Compound 115, (1^1S,1^3R,9R,Z)-9-methyl-2^1H-12-oxa-3,10-diaza-4(4,2)-pyridina-2(3,5)-pyrazola-1(1,3)-cyclopentanacyclododecaphan-11-one]	–	–	–	–	–	–	–	–	–	10 to 50 nM	10 to 50 nM	250 to 1250 nM	50 to 100 nM	E (E, <20)	10 to 50 nM	10 to 50 nM	E (E, <20)	10 to 50 nM	E (E, <20)	100 to 500 nM	CDK2 Fold selectivity, CDK9 (CDK9-CYCLIN T1; Table 20): E (E, <20)
O=C1NC2(CCCCc3cc(ccn3)Nc3cc(n[nH]3)[C@H]3CC[C@H](C3)O1)CC2 [Compound 116, (1′S,3′R,Z)-spiro[cyclopropane-1,9′-12-oxa-3,10-diaza-4(4,2)-pyridina-2(3,5)-pyrazola-1(1,3)-cyclopentanacyclododecaphan]-11′-one]	–	–	–	–	–	–	–	–	–	10 to 50 nM	10 to 50 nM	250 to 1250 nM	–	–	–	–	–	–	–	–	IC50 (CDK1-CYCLIN B; ADP-Glo, 1000 μM ATP, Table 17): 50 to 100 nM; CDK2 Fold selectivity, CDK1 (CDK1-CYCLIN B; Table 18): D (D, >20 and ≤50); IC50 (CDK2-CYCLIN E1; ADP-Glo, 1000 μM ATP, Table 17): ≤ 10 nM; IC50 (CDK4-CYCLIN D1; ADP-Glo, 1000 μM ATP, Table 17): 10 to 50 nM; CDK2 Fold selectivity, CDK4 (CDK4-CYCLIN D1; Table 18): E (E, <20); IC50 (CDK6-CYCLIN D3; ADP-Glo, 1000 μM ATP, Table 17): 10 to 50 nM; CDK2 Fold selectivity, CDK6 (CDK6-CYCLIN D3; Table 18): E (E, <20); IC50 (CDK9-CYCLIN T1; ADP-Glo, 1000 μM ATP, Table 17): 50 to 100 nM; CDK2 Fold selectivity, CDK9 (CDK9-CYCLIN T1; Table 18): D (D, >20 and ≤50)
O=C1NC23CC(CCOc4cncc(c4)Nc4cc(n[nH]4)[C@H]4CC[C@H](C4)O1)(C2)C3 [Compound 117, (1^1S,1^3R,Z)-2^1H-5,11-dioxa-3,9-diaza-4(3,5)-pyridina-2(3,5)-pyrazola-8(1,3)-bicyclo[1.1.1]pentana-1(1,3)-cyclopentanacycloundecaphan-10-one]	≤ 10 nM	E (E, <20)	≤ 10 nM	10 to 50 nM	E (E, <20)	10 to 50 nM	E (E, <20)	10 to 50 nM	D (D, >20 and ≤50)	≤ 2 nM	≤ 2 nM	50 to 250 nM	–	–	–	–	–	–	–	–	–
C[C@H]1CCCOc2cncc(c2)Nc2cc(n[nH]2)[C@H]2CC[C@H](C2)OC(=O)N1 [Compound 119, (1^1S,1^3R,9S,Z)-9-methyl-2^1H-5,12-dioxa-3,10-diaza-4(3,5)-pyridina-2(3,5)-pyrazola-1(1,3)-cyclopentanacyclododecaphan-11-one]	–	–	–	–	–	–	–	–	–	2 to 10 nM	10 to 50 nM	> 1250 nM	–	–	–	–	–	–	–	–	IC50 (CDK1-CYCLIN B; ADP-Glo, 1000 μM ATP, Table 13): 10 to 50 nM; CDK2 Fold selectivity, CDK1 (CDK1-CYCLIN B; Table 14): D (D, >20 and ≤50); IC50 (CDK2-CYCLIN E1; ADP-Glo, 1000 μM ATP, Table 13): ≤ 10 nM; IC50 (CDK4-CYCLIN D1; ADP-Glo, 1000 μM ATP, Table 13): 100 to 500 nM; CDK2 Fold selectivity, CDK4 (CDK4-CYCLIN D1; Table 14): C (C, >50 and ≤100); IC50 (CDK6-CYCLIN D3; ADP-Glo, 1000 μM ATP, Table 13): 10 to 50 nM; CDK2 Fold selectivity, CDK6 (CDK6-CYCLIN D3; Table 14): E (E, <20); IC50 (CDK9-CYCLIN T1; ADP-Glo, 1000 μM ATP, Table 13): 100 to 500 nM; CDK2 Fold selectivity, CDK9 (CDK9-CYCLIN T1; Table 14): C (C, >50 and ≤100)
